Measurements from patent US20230067644A1, “DRG-MDM2-3 FOR USE AS A NOVEL MOUSE DOUBLE MINUTE 2 (MDM2) INHIBITOR” (BAHCESEHIR UNIVERSITESI, priority 2020, published 2023).
Like-named read-outs stand apart in the source and are kept apart here.

Assays:
[1] = test system: HCT-116 cells; experiment: MTT cell proliferation assay; format: cell-based; conditions: Homo sapiens, HCT-116, 100 μM, read-out: cell viability decreased
Protocol: (§1) HCT 116 colon cancer and MDA-MB231 breast cancer cell lines are used in cell culture experiments.
For proliferation inhibition analysis, cells were seeded in 24 well plates at 1×10^4 cells/well cells overnight without drug treatment. During the cell proliferation experiments, we performed five days of treatment in each cell line and repeated the experiments three times to check each experiment. No significant difference in cell viability was observed after the third day. Therefore, cells with different drug concentrations were treated for two days. After 48 hours, MTT was applied to the cells and incubated at 37° C. for 4 hours, formazan was solubilized with DMSO (Sigma-Aldrich, St. Louis, USA) and absorbance was measured at 570 nm.
Molecule concentration was 100 μM, the lower concentrations were not shown. Vehicle represents the groups treated with only %0,5 DMSO and Untreated represents no molecule treated group. Molecule responses were evaluated by cell viability which is obtained by spectrophotometric analysis of cells upon MTT treatment at 12 h, 24 h, 48 h and 72 h. […] Statistical significance in graphs was determined by comparing each treatment group with DMSO control using ANOVA testing and significance is considered as p<0.001 (FIG. 2).
As a result, cell viability decreased by 40% at the end of the first day and reached 60% at the end of the third day. […]

[2] = test system: HCT-116 cells; experiment: Microscopic evaluation of cells (proliferation, apoptotic morphology); format: cell-based
Protocol: Cells were photographed and observed under microscope for three days.
As a result, cell viability decreased by 40% at the end of the first day and reached 60% at the end of the third day. Any cell proliferation change and apoptotic cell morphology were not observed in the untreated and vehicle groups. Moreover, differences in cell morphology were also observed. […] Upon treatment with the compound of formula I according to present invention with 100 μM concentration, cells having the morphology of apoptotic cells were observed starting from the 3rd hour.

[3] = test system: MDA-MB231 cell lines; experiment: MTT cell viability assay (IC50); format: cell-based; conditions: Homo sapiens, MDA-MB-231, single dose of treatment, 10^-9 to 10^-4 M, absorbance 570 nm
Protocol: as §1
Cells were treated with high-glucose DMEM medium (Biosera) supplemented with 10% FBS (Gibco) and 1× penicillin/streptomycin (Multicell). The assay was designed to contain 10,000 cells for each well of 24-well cell culture plates before being treated with inhibitors.
Compound of formula I was dissolved with DMSO as 20 mM stock. 24 hours later, the solution was diluted in DMEM with 10% FBS and final concentration of vehicle DMSO was 0.5% at maximum. Therefore, the vehicle group included 0.5% DMSO concentration in experiments. Intensive cultivation of cells causes a decrease in proliferation capacity.
The MTT cell viability assay was used to detect values of half-maximal inhibitory concentration (IC50). Different concentrations of compound of formula I ranging between 10^−9 to 10^−4 M were tested on MDA-MB231 cell lines with single dose of treatment. 570 nm absorbance values were recorded and IC50 values were calculated by dose response—inhibition curves and nonlinear regression analysis on Graphpad Prism 8 software.

[4] = biological target: MDM2 protein (Homo sapiens, UniProt Q00987); conditions: background statement; cited from earlier work
MDM2 protein, sequence (Q00987 whole entry, species assumed): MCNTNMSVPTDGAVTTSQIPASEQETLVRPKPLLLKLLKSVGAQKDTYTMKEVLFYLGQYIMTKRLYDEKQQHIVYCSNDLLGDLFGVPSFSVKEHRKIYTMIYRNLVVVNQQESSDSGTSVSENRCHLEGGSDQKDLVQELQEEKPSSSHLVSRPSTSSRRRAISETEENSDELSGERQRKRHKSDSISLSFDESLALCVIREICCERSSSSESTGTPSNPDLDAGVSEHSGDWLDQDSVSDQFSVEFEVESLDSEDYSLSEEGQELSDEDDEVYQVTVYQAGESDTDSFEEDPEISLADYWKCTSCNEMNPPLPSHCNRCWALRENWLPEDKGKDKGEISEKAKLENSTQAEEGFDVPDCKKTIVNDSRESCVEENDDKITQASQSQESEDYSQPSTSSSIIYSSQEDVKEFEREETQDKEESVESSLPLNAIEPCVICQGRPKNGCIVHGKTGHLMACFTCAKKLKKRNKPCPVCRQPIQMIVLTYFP

## O=C(CCc1ccccc1Cl)NC(CC1CNc2ccccc21)C(=O)O (stereo not shown) [compound of formula I]
[1]; at the end of the first day
  cytotoxicity at 100 µM: 40%
[1]; at the end of the third day
  cytotoxicity at 100 µM: 60%
[2]; 100 μM concentration
  hour from which cells having the morphology of apoptotic cells were observed: 3 hour
[2]; FIG. 3
  apoptotic activity (onset, microscopy): clear apoptotic activity from the twelfth hour
[2]; observed for three days, vs vehicle and untreated, FIG. 3
  proliferation and cell structures under microscope: reduced proliferation and showed apoptotic cell structures
[3]
  IC50: 41 µM

## MI-319
[4]
  binding affinity to MDM2 protein relative to a natural p53 peptide: 500 fold
